For assay [1], the target named is T1, Pannexin 1 (PANX1) (Homo sapiens, UniProt Q96RD7). As to the kind of experiment: To-Pro-3 uptake in HEK293T cells at […]. The assay is classed as cell-based. The arrangement: C-terminally truncated hPANX1-CT-EGFP. As to conditions: HEK-293T; read-out: Mean ± SEM ^a).
For assay [2], the target named is T1, Pannexin 1 (PANX1). The assay is described as follows: whole-cell voltage clamp in HEK293T cells (-50 mV); CETSA (Tagg […] to […] °C). The assay is classed as cell-based. Also on record: hPANX1(TEV)-EGFP cleaved by TEVp (currents); full-length hPANX1-FLAG (CETSA).

T1 sequence (Q96RD7 1-379 limits assumed): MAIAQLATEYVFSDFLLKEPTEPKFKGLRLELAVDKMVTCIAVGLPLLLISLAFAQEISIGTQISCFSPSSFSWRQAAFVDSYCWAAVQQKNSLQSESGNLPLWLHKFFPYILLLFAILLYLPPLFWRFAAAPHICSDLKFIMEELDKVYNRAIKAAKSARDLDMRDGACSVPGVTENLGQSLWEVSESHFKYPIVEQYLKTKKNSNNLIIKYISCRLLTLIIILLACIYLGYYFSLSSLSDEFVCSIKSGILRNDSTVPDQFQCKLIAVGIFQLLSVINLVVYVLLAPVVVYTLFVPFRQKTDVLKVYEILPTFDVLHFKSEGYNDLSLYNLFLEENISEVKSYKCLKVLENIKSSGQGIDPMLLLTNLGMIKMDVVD

As for `N[C@@H]1[C@H]2CN(c3nc4c(cc3F)c(=O)c(C(=O)O)cn4-c3ccc(F)cc3F)C[C@@H]12` [Trovan, trovafloxacin], the inhibition at 20 µM at Pannexin 1 (PANX1) [1] stood at 87.3 ± 1.3%.

One may read the IC50 as the concentration at which inhibition is half-maximal. On Pannexin 1 (PANX1) [2], `COc1ccc(Cn2cc(C(=O)O)c(=O)c3cc(F)c(N4CCN(C)CC4)nc32)c(OC)c1` [compound 12, lithium 1‐(2,4‐dimethoxybenzyl)−6‐fluoro‐7‐(4‐methylpiperazin‐1‐yl)−4‐oxo‐1,4‐dihydro‐1,8‐naphthyridine‐3‐carboxylate] came in with an IC50 of about 730 nM.

These data come from PMC11831487, “Novel Naphthyridones Targeting Pannexin 1 for Colitis Management” (Advanced Science, 2024).
